Experimental data taken from US8981179B2, “Transgenic non-human animal and uses thereof” (Sanofi, priority 2009, dated 2015).

Key:
[1] = system: β adrenergic receptors (ADβR); experiment: Primary cortical neurons CreLuc luciferase assay, Gs modulation via ADβR; format: cell-based, mouse; conditions: cortical neurons line 187, day 3, 10 μM, 4 hours
From the text: A general schematic of the workflow for the isolation and compound treatment of primary neuronal cells from the CreLuc model is depicted in FIG. 9. Cortices or other brain subregions are removed from embryos, usually embryonic (E) day 17 or 18, but also as early as E14. The individual neurons are then isolated and plated onto 96 well assay plates. Assays are run either in triplicate or quadruplicate. The assays are run from day 3 in culture up until day 7 or day 10 in culture depending on the expression levels of the target GPCR. Compounds are added to the plates then at a set timepoint, Bright Glo (Promega, Cat #E2610) is added to the plates and the assay is then run on a TopCount or other luminometer.
Primary cell cultures from the CreLuc mice may be used to screen compounds that are capable of modulating Gs coupled receptors. Neurons were isolated from the cortices of line 187 E18 embryos. […] The assay was run in triplicates on day three in culture. Forskolin was used at 5 μM, rolipram at 10 μM and the Gs agonists, ADβR-isoproterenol; and Dopamine-SKF82958 (MFG, Cat #C130) at 10 μM. At 4 hours, Bright Glo was added and the assays run on a Topcount. Forskolin is a general activator of cAMP. […] Forskoline and rolipram act synergistically to increase luciferase expression. […]

ADRβ = experiment: Primary striatal neurons CreLuc luciferase assay, ADβR agonist; format: cell-based, mouse; conditions: striatal neurons line 187, day 4, 10 μM, 3 μM and 1 μM, 5 hours
From the text: Any cell culture derived from the CreLuc mice may be used to screen compounds for the ability to modulate GPCRs. Luciferase expression was induced in CreLuc striatal neurons by forskolin and rolipram, and Gs agonists for DRD1 and ADβR (FIG. 16). Striatum neurons were isolated from E14 embryos. The assays were run at day 4 in culture. […]. Thus, the transgene is functional in striatal as well cortical neurons (see FIG. 10).

ADβR [2] = experiment: Cardiomyocytes CreLuc luciferase assay, ADβR agonist; format: cell-based, mouse; conditions: cardiomyocytes line 229, 10 μM isoproterenol
Experimental: The effects of forskolin and rolipram and isoproterenol on luciferase levels in cardiomyocytes was studied (FIG. 35). Cardiomyocytes were isolated from P3 pups from line 229. The cells were cultured in a 96 well plate. Compounds tested include 10 μM forskolin, 5 μM rolipram and 10 μM isoproterenol (ADβR agonist).

[3] = system: β-adrenergic receptor (ADβR); experiment: Whole splenocytes CreLuc luciferase assay, ADβR agonist; format: cell-based, mouse; conditions: line 64 whole splenocytes, 10 uM, 4 hours
Experimental: Whole splenocyte preps isolated from CreLuc mice (line 64) were used to show the effects of general cAMP inducers such as forskolin and rolipram, as well as Gs agonists on luciferase expression (FIG. 16). […] The cell suspension was then passed through a 70 um strainer into a 50 ml conical tube. […] Cells were diluted to 2×10^6/ml, and 100 ul of the cells were plated per well in a 96 well white opaque plate. […] At 24 hours, compounds were added to the plates for an additional 4 hours. The general inducers include rolipram (Sigma R6520), forskolin (Sigma F6886). […] The assay was run in triplicate. After 4 hours, 100 μl of BrightGlo (Promega, Madison, Wis., cat#E2610) and the assay was read on a TopCount luminometer. […] The preparation used in the experiment was a whole splenocyte preparation which is a mixed population of cells.

[4] = system: cAMP pathway (CreLuc luciferase reporter) in brain slices; experiment: Whole brain slice luminescence, cAMP pathway activators; format: cell-based, mouse; conditions: line 187, 1 uM isoproterenol, 2 days
Experimental: In general, brains from CreLuc mice can be harvested and then either cut into slices on a microtome or various subregions can also be dissected out and then sliced on a microtome. The slices can then be incubated with different compounds such as forskolin and rolipram, or GPCR specific compounds. Luciferase levels can then be measured with an IVIS bioimager or a photomultiplier with a carousel to take quantitative timecourse measurements.
Thus, isoproterenol was used to increase the luciferase signal window which allows for screening GPCR specific compounds such as Gi agonists.
Compound activity can also be quantitated over time in a viable brain slice and luciferase expression can be visualized by a bioimager. […] Forskolin is a general activator of cAMP.

ADβR [5] = experiment: Isolated CD4+ T cells CreLuc luciferase assay, ADβR agonist; format: cell-based, mouse; conditions: line 64 CD4+ T cells, anti CD3 24 hours, 10 μM, 4 hours
Experimental: The effects of different Gs agonists on luciferase levels in anti CD3 stimulated CD4+ T cells isolated from CreLuc mice was studied (FIG. 19). Whole splenocyte populations were prepared by mechanical disruption. CD4+ cells were then isolated by MACS Magnetic Separation with Positive Selection (Miltenyi Biotec cat#130-049-201). The cells, 1.5×10^5 per well, were then plated on 96 well white opaque plates and then stimulated with anti CD3 antibodies (BD Pharmingen cat#553058). After 24 hours, compounds were added for an additional 4 hours. Gs agonists for DP (B[…]), EP2 (EX00000173A) and ADβR (isoproterenol) were all used at 10 μM. Forskolin 5 μM, and rolipram 10 μM. BrightGlo (Promega, Madison, Wis., cat#E2610) was added and the assay was read on the TopCount. A 25-fold increase is observed in cells treated with forskolin and rolipram. […] The transgene was responsive to specific Gs agonists as well as general modulators of the cAMP pathway.

CRE Luc reporter = experiment: In vivo bioluminescence imaging of CreLuc transgenic mouse after isoproterenol; conditions: bioimaging
Experimental: Administration of isoproterenol (right panel) increases spinal cord expression of the CRE Luc reporter compared to basal levels (left panel). The bioluminescent detection is represented visually on a white-light image of the animal as a pseudocolor representation in grayscale. […] For in vivo assays, the animals are dosed with luciferin only and then bioimaged on an IVIS bioimager to get baseline signal. The animals are then dosed with compound, and then bioimaged again at a set timepoint to examine the effects of the compound on the luciferase signal. Data can be analyzed as the fold induction of the induced signal versus the baseline signal. For the ex vivo assays, mice are dosed with either compound or vehicle, and then at a set timepoint, tissues are harvested and frozen. The tissues can then be homogenized and a luciferase assay such as Promega Luciferase assay system (Promega cat #E1500) run on the tissue extracts and the assay read on a luminometer such as the Topcount. Data can be analyzed as the relative light units per μg protein, comparing vehicle versus compound groups.

ADβR [6] = experiment: Mouse embryonic fibroblasts CreLuc luciferase assay, ADβR agonist; format: cell-based; conditions: six independent CreLuc lines, 10 μM isoproterenol
Experimental: The effects of forskolin, rolipram and isoproterenol on luciferase expression in mouse embryonic fibroblasts was investigated (FIG. 33). Mouse embryonic fibroblasts were cultured from E12 embryos from six independent CreLuc lines. Cells were plated at 20,000 cells per well. Compounds tested include 10 μM forskolin, 5 μM rolipram and 10 μM isoproterenol (ADβR agonist).

CC(C)NCC(O)c1ccc(O)c(O)c1 (centres unmarked) [isoproterenol]
increased luci levels vs DMSO control [1]: 11 fold
luciferase expression (ADRβ): Significant increases
increase in luciferase levels (ADβR [2]): 2 fold
luciferase versus DMSO only control (t-test) [3]: Statistically significant increases
luciferase expression in hippocampal brain slices [4]: induces luciferase expression levels
increase of luciferase (ADβR [5]): 5 fold
spinal cord expression of the CRE Luc reporter compared to basal levels (CRE Luc reporter): increases
luciferase expression in mouse embryonic fibroblasts (ADβR [6]): Significant increases were also observed in three of the lines
